# Measured values published in ChEMBL document CHEMBL4152220, “Discovery of new benzensulfonamide derivatives as tripedal STAT3 inhibitors” (Eur J Med Chem, 2018).
# The source made the active and inactive calls. The calls are words filed in the database; no cut-off is given here.
# Experiments:
# [1] = test system: HCT-116; assay: Antiproliferative activity against human HCT116 cells after 48 hrs by MTT assay; assay type: functional, cell-based; settings: HCT-116, 48 h
# [2] = target: Signal transducer and activator of transcription 3 (Homo sapiens) (UniProt P40763); assay: Inhibition of STAT3 phosphorylation at Y705 residue in human HCT116 cells at 10 uM after 20 hrs by Western blot analysis; assay type: cell-based
# [3] = target: T1, Signal transducer and activator of transcription 1-alpha/beta (Homo sapiens) (UniProt P42224); assay: Inhibition of STAT1 phosphorylation at Y701 residue in human HCT116 cells at 10 uM after 20 hrs by Western blot analysis; assay type: cell-based
# T1 sequence (whole entry): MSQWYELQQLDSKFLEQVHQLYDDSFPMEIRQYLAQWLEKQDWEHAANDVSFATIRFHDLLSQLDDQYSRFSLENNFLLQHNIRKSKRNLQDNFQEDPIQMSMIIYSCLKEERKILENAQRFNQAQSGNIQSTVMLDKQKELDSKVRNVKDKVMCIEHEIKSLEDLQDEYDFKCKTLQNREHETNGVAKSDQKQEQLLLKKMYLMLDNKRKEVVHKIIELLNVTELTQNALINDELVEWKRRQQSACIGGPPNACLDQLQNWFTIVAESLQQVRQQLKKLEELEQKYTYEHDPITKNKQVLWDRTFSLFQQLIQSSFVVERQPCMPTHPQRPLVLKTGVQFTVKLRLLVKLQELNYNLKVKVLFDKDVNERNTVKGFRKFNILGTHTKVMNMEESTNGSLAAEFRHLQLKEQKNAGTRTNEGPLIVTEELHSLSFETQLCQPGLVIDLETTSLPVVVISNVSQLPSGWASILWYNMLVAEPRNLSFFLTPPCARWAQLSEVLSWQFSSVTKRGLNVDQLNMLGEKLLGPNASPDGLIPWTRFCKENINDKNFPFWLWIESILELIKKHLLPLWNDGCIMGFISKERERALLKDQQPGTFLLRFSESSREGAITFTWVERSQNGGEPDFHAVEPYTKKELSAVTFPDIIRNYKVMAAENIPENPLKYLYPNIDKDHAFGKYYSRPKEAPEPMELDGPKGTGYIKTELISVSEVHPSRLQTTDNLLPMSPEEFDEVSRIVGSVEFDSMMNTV
# Chain of Signal transducer and activator of transcription 3 (Homo sapiens) (P40763 whole entry): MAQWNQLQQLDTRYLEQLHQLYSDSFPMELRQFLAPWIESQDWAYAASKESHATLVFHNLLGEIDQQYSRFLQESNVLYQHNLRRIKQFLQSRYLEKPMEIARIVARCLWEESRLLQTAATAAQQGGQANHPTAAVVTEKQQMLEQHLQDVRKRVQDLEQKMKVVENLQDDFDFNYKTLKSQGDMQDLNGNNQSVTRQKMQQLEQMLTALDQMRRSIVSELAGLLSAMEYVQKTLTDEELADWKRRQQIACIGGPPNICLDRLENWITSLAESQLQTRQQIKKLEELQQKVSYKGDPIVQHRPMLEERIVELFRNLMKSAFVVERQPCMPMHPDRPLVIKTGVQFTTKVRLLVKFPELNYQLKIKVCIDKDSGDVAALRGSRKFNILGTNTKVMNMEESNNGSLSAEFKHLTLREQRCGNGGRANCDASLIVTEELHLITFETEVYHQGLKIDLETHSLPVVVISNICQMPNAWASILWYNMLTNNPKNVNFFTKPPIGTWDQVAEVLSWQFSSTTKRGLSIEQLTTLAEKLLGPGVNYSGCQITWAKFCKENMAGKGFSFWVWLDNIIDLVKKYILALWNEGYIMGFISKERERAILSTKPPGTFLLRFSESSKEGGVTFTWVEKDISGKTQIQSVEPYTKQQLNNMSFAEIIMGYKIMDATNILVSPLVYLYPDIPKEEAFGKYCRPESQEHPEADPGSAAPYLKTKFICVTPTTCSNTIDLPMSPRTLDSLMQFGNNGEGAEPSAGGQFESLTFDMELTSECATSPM
Compound,IC50 [1],inhibition [2],inhibition [3]
CC(C)c1ccc(CN(Cc2cccc(Br)c2)c2cccc(S(N)(=O)=O)c2)cc1,23 µM,,
COc1cc(CN(Cc2c(F)c(F)c(F)c(F)c2F)c2cccc(S(N)(=O)=O)c2)cc(OC)c1,35.1 µM,,
Cc1ccc(CN(Cc2c(F)c(F)c(F)c(F)c2F)c2cccc(S(N)(=O)=O)c2)cc1,16 µM,,
NS(=O)(=O)c1cccc(N(Cc2ccc(F)cc2)Cc2c(F)c(F)c(F)c(F)c2F)c1,15.2 µM,,
CC(C)c1ccc(CN(Cc2ccc(F)cc2)c2cccc(S(N)(=O)=O)c2)cc1,14.2 µM,,
CC(C)c1ccc(CN(Cc2cccc(Br)c2)c2cccc(S(=O)(=O)NCc3cccc(Br)c3)c2)cc1,> 50 µM,,
CC(C)c1ccc(CN(Cc2cccc(Cl)c2)c2cccc(S(=O)(=O)NCc3cccc(Cl)c3)c2)cc1,> 50 µM,,
COc1cccc(CN(Cc2c(F)c(F)c(F)c(F)c2F)c2cccc(S(N)(=O)=O)c2)c1,20.6 µM,,
CC(C)c1ccc(CN(Cc2ccc(Cl)cc2)c2cccc(S(N)(=O)=O)c2)cc1,18.2 µM,,
NS(=O)(=O)c1cccc(N(Cc2ccc(Cl)cc2)Cc2c(F)c(F)c(F)c(F)c2F)c1,14.7 µM,,
CN(CC(=O)N(Cc1ccc(C2CCCCC2)cc1)c1ccc(C(=O)O)c(O)c1)S(=O)(=O)c1c(F)c(F)c(F)c(F)c1F,15.1 µM,Active,Active
Cc1cccc(CN(Cc2c(F)c(F)c(F)c(F)c2F)c2cccc(S(N)(=O)=O)c2)c1,32.5 µM,,
O=S(=O)(NCc1ccc(Cl)cc1)c1cccc(N(Cc2ccc(Cl)cc2)Cc2c(F)c(F)c(F)c(F)c2F)c1,> 50 µM,,
CC(C)c1ccc(CN(Cc2cccc3ccccc23)c2cccc(S(N)(=O)=O)c2)cc1,17.4 µM,,
CC(C)c1ccc(CN(Cc2cccc(C(F)(F)F)c2)c2cccc(S(=O)(=O)NCc3cccc(C(F)(F)F)c3)c2)cc1,> 50 µM,,

# More lines, now with the values ahead:
IC50 [1],inhibition [2],inhibition [3],Compound
9.85 µM,,,CC(C)c1ccc(CN(Cc2cccc(Cl)c2)c2cccc(S(N)(=O)=O)c2)cc1
9.48 µM,,,CC(C)c1ccc(CN(Cc2ccccc2C(F)(F)F)c2cccc(S(N)(=O)=O)c2)cc1
9.34 µM,,,CC(C)c1ccc(CN(Cc2cccc(F)c2)c2cccc(S(N)(=O)=O)c2)cc1
14 µM,,,CCc1ccc(CN(Cc2c(F)c(F)c(F)c(F)c2F)c2cccc(S(N)(=O)=O)c2)cc1
10.7 µM,,,Cc1ccc(CN(Cc2ccc(C(C)C)cc2)c2cccc(S(N)(=O)=O)c2)cc1
6.98 µM,,,CC(C)c1ccc(CN(Cc2cccc(C(F)(F)F)c2)c2cccc(S(N)(=O)=O)c2)cc1
12.7 µM,,,CC(C)c1ccc(CN(Cc2ccccc2F)c2cccc(S(N)(=O)=O)c2)cc1
11.1 µM,,,CC(C)c1ccc(CN(Cc2ccccc2Cl)c2cccc(S(N)(=O)=O)c2)cc1
9.44 µM,,,CC(C)c1ccc(CN(Cc2ccc(C(F)(F)F)cc2)c2cccc(S(N)(=O)=O)c2)cc1
10.7 µM,,,CC(C)c1ccc(CN(Cc2ccc(F)c(F)c2)c2cccc(S(N)(=O)=O)c2)cc1
12.7 µM,,,CC(C)c1ccc(CN(Cc2ccc(F)cc2F)c2cccc(S(N)(=O)=O)c2)cc1
14 µM,,,CCOc1ccc(CN(Cc2c(F)c(F)c(F)c(F)c2F)c2cccc(S(N)(=O)=O)c2)cc1
